Source: PubChem BioAssay AID1963847 (Molecular Pharmacology Branch, DTP, NCI, 2024)
“And” between values parts separate entries of the source, which are not always exact repeats. Identical values can stand only once.

Tested on: 415267-285-R-J2-PDC complex spheroid viability
Assay: Anticancer human tumor 415267-285-R-J2-PDC patient-derived breast carcinoma cell line growth inhibition [POLQ]
Conditions: for viability, T/C: stronger effect = lower value
Protocol: Multicellular complex tumor spheroid response to Polymerase (POL) inhibitors (novobiocin, ART-558, RP6685) in combination with a variety of drugs and investigational agents in selected tumor cell lines
The POL inhibitors (novobiocin, ART-558, and RP6685) were evaluated both individually and in combination with standard of care and investigational anticancer small molecules within a complex spheroid model of solid tumors. . Complex spheroids include a stromal component modeled by human endothelial cells (HUVEC) and fibroblasts modeled by human mesenchymal stem cells (MSCs). The concentration ranges selected for each drug and investigational agent were based upon clinically achievable concentrations if the clinical Cmax of the agent was known.
Compounds. The drugs and investigational agents: novobiocin (NSC847541), ART-558 (NSC835418), RP-6685 (NSC848927), peposertib (NSC802822), ceralasertib (NSC780249), elimusertib (NSC800525), camonsertib (NSC841442), AZD-1390 (NSC803789), olaparib (NSC753686), talazoparib (NSC767125), rucaparib (NSC756644), sotorasib (NSC818433), MRTX-1133 (NSC836407), SN-38 (NSC673596), topotecan (NSC609699), epotoside (NSC141540), doxorubicin (NSC123127), gemcitabine (NSC613327), 5-fluorouracil (NSC19893), paclitaxel (NSC125973), vemurafenib (NSC761431), MSA-2 (NSC828583), SN-011 (NSC837082), adavosertib (NSC754352), prexasertib (NSC758257), carboplatin (NSC241240) and oxaliplatin (NSC266046), were obtained from the National Cancer Institute (NCI) Developmental Therapeutics Program Chemical Repository (21). The FDA-approved anticancer drug set is available from the Developmental Therapeutics Program at https://dtp.cancer.gov/organization/dscb/obtaining/. […] The stock solutions were prepared in dimethyl sulfoxide (DMSO, Sigma-Aldrich, St. Louis, MO, cat. D2650), except for the platinum compounds which were prepared in saline (Quality Biological, Gaithersburg, MD, cat. 114-055-101), at 800-fold the tested concentration and stored at -70 degrees C prior to their use. All drugs and investigational agents were tested over a range starting from a high concentration at or near the clinical Cmax and decreasing in half-log increments. If the clinical Cmax for an agent had not been determined, the highest concentration tested was 10 microM, except for SN-38, which was tested at a high concentration of 1 microM.
Cell Culture. All cells were maintained in an incubator at 37 degrees C and 5% CO2 with 95% humidity. The PDC lines were cultured according to standard operating procedures established by the NCI PDMR (https://pdmr.cancer.gov). Table 3 of the manuscript, lists the cell lines along with the number of the three cell types plated to form the mct-spheroids and media for tumor cell growth. After thawing, all PDC lines, except 997537-175-T-J1-PDC and 415267-285-R-J2-PDC, were cultured in Matrigel-coated flasks prepared with a working solution of 1X Ham's F-12 nutrient mix, without supplementation (Thermo Fisher Scientific, cat. 11765054), 100 U/mL penicillin-streptomycin (Thermo Fisher Scientific, cat. 15140122), and 2.5% Matrigel (Corning Inc., Corning, NY, cat. 354248) for the first three passages. The two PDC lines 997537-175-T-J1-PDC and 415267-285-R-J2-PDC were cultured on uncoated flasks. The 857933-349-R-J2-PDC line was cultured in 6C/Colon 1B media containing advanced DMEM/F-12 (Thermo Fisher Scientific, cat. 12634028), 10 mM HEPES (Thermo Fisher Scientific, cat. 15630080), 1X GlutaMAX supplement (Thermo Fisher Scientific, cat. 35050061), 0.1 mg/mL primocin (InvivoGen, San Diego, CA, cat. ant-pm-2), 10% defined fetal bovine serum, heat inactivated (HyClone Laboratories Inc., Logan, UT, cat. SH30070.03HI), 50% L-WRN conditioned media (ATCC, cat. CRL-3276), 1.25 mM N-Acetyl-L-cysteine (Sigma-Aldrich, cat. A9165), 10 mM nicotinamide (Sigma-Aldrich, cat. N0636), 1X B-27 supplement (Thermo Fisher Scientific, cat. 17504044), 1X N-2 supplement (Thermo Fisher Scientific, cat. […]

[1] = curve of first compound, second compound 0.0316 µM
[2] = curve of first compound, second compound 0.1 µM
[3] = curve of first compound, second compound 0.316 µM
[4] = curve of first compound, second compound 1 µM
[5] = curve of first compound, second compound 3.16 µM
[6] = curve of first compound, second compound 10 µM
[7] = second compound 0.0316 µM, first compound 0.0316 µM
[8] = second compound 0.0316 µM, first compound 0.1 µM
[9] = second compound 0.0316 µM, first compound 0.316 µM
[10] = second compound 0.0316 µM, first compound 1 µM
[11] = second compound 0.0316 µM, first compound 3.16 µM
[12] = second compound 0.0316 µM, first compound 10 µM
[13] = second compound 0.1 µM, first compound 0.0316 µM
[14] = second compound 0.1 µM, first compound 0.1 µM
[15] = second compound 0.1 µM, first compound 0.316 µM
[16] = second compound 0.1 µM, first compound 1 µM
[17] = second compound 0.1 µM, first compound 3.16 µM
[18] = second compound 0.1 µM, first compound 10 µM
[19] = second compound 0.316 µM, first compound 0.0316 µM
[20] = second compound 0.316 µM, first compound 0.1 µM
[21] = second compound 0.316 µM, first compound 0.316 µM
[22] = second compound 0.316 µM, first compound 1 µM
[23] = second compound 0.316 µM, first compound 3.16 µM
[24] = second compound 0.316 µM, first compound 10 µM
[25] = second compound 1 µM, first compound 0.0316 µM
[26] = second compound 1 µM, first compound 0.1 µM
[27] = second compound 1 µM, first compound 0.316 µM
[28] = second compound 1 µM, first compound 1 µM
[29] = second compound 1 µM, first compound 3.16 µM
[30] = second compound 1 µM, first compound 10 µM
[31] = second compound 3.16 µM, first compound 0.0316 µM
[32] = second compound 3.16 µM, first compound 0.1 µM
[33] = second compound 3.16 µM, first compound 0.316 µM
[34] = second compound 3.16 µM, first compound 1 µM
[35] = second compound 3.16 µM, first compound 3.16 µM
[36] = second compound 3.16 µM, first compound 10 µM
[37] = second compound 10 µM, first compound 0.0316 µM
[38] = second compound 10 µM, first compound 0.1 µM
[39] = second compound 10 µM, first compound 0.316 µM
[40] = second compound 10 µM, first compound 1 µM
[41] = second compound 10 µM, first compound 3.16 µM
[42] = second compound 10 µM, first compound 10 µM
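Also: spheroids exposed to compounds for one week before readout.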
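For viability, T/C in this document: luminescence used as stand-in measure of viable cells; 100% = DMSO vehicle control viability.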

## C=CC(=O)N1CCN(c2nc(=O)n(-c3c(C)ccnc3C(C)C)c3nc(-c4c(O)cccc4F)c(F)cc23)C(C)C1 (stereo not drawn)
Compound 0.0316 µM
  viability, T/C: 88.5% and 95.7% and 91.3%
Compound 0.1 µM
  viability, T/C: 105% and 106% and 98.2%
Compound 0.316 µM
  viability, T/C: 97.6% and 105% and 93.3%
Compound 1 µM
  viability, T/C: 91% and 116% and 101%
Compound 3.16 µM
  viability, T/C: 98.9% and 108% and 113%
Compound 10 µM
  viability, T/C: 103% and 107% and 96.3%
Curve of compound
  IC50: > 10 µM

## CC(C)n1c(=O)n(C)c2cnc3cc(F)c(-c4ccc(OCCCN5CCCCC5)nc4)cc3c21 + COC1C(OC(N)=O)C(O)C(Oc2ccc3c(O)c(NC(=O)c4ccc(O)c(CC=C(C)C)c4)c(=O)oc3c2C)OC1(C)C
[1]
  IC50: > 10 µM
[2]
  IC50: > 10 µM
[3]
  IC50: > 10 µM
[4]
  IC50: > 10 µM
[5]
  IC50: > 10 µM
[6]
  IC50: > 10 µM
[7]
  viability, T/C: 97.5%
[8]
  viability, T/C: 97.6%
[9]
  viability, T/C: 95.6%
[10]
  viability, T/C: 94.1%
[11]
  viability, T/C: 101%
[12]
  viability, T/C: 99.2%
[13]
  viability, T/C: 89.8%
[14]
  viability, T/C: 93.6%
[15]
  viability, T/C: 107%
[16]
  viability, T/C: 104%
[17]
  viability, T/C: 103%
[18]
  viability, T/C: 95.3%
[19]
  viability, T/C: 96.8%
[20]
  viability, T/C: 95.8%
[21]
  viability, T/C: 104%
[22]
  viability, T/C: 110%
[23]
  viability, T/C: 112%
[24]
  viability, T/C: 89.5%
[25]
  viability, T/C: 99.6%
[26]
  viability, T/C: 103%
[27]
  viability, T/C: 91.2%
[28]
  viability, T/C: 102%
[29]
  viability, T/C: 95.5%
[30]
  viability, T/C: 97%
[31]
  viability, T/C: 107%
[32]
  viability, T/C: 91.4%
[33]
  viability, T/C: 89%
[34]
  viability, T/C: 98.2%
[35]
  viability, T/C: 107%
[36]
  viability, T/C: 98.8%
[37]
  viability, T/C: 101%
[38]
  viability, T/C: 99.5%
[39]
  viability, T/C: 93.5%
[40]
  viability, T/C: 114%
[41]
  viability, T/C: 98.4%
[42]
  viability, T/C: 82.5%

## COc1cc(C2c3cc4c(cc3C(OC3OC5COC(C)OC5C(O)C3O)C3COC(=O)C23)OCO4)cc(OC)c1O (stereo not drawn)
Compound 0.0316 µM
  viability, T/C: 91.8% and 103% and 92%
Compound 0.1 µM
  viability, T/C: 59.7% and 89.7% and 71.3%
Compound 0.316 µM
  viability, T/C: 14.1% and 19.4% and 17.1%
Compound 1 µM
  viability, T/C: 7.22% and 5.65% and 8.76%
Compound 3.16 µM
  viability, T/C: 4.9% and 4.07% and 5.15%
Compound 10 µM
  viability, T/C: 5.87% and 5.42% and 6.28%
Curve of compound
  IC50: 0.128 µM and 0.192 µM and 0.157 µM

## O=C(Nc1ccc(O)c(NS(=O)(=O)c2ccc(F)cc2)c1)c1ccc(-c2ccccc2)cc1 + Nc1ccc(C#CCN(C(=O)Cc2ncc(C(F)(F)F)cc2C(F)(F)F)c2ccc(F)cc2)nn1
[1]
  IC50: > 10 µM
[2]
  IC50: > 10 µM
[3]
  IC50: > 10 µM
[4]
  IC50: > 10 µM
[5]
  IC50: > 10 µM
[6]
  IC50: > 10 µM
[7]
  viability, T/C: 100%
[8]
  viability, T/C: 97.3%
[9]
  viability, T/C: 84.3%
[10]
  viability, T/C: 107%
[11]
  viability, T/C: 92.7%
[12]
  viability, T/C: 78.2%
[13]
  viability, T/C: 104%
[14]
  viability, T/C: 99.1%
[15]
  viability, T/C: 106%
[16]
  viability, T/C: 86.1%
[17]
  viability, T/C: 97.2%
[18]
  viability, T/C: 61.6%
[19]
  viability, T/C: 105%
[20]
  viability, T/C: 102%
[21]
  viability, T/C: 107%
[22]
  viability, T/C: 94.9%
[23]
  viability, T/C: 97.4%
[24]
  viability, T/C: 71.5%
[25]
  viability, T/C: 102%
[26]
  viability, T/C: 90.8%
[27]
  viability, T/C: 89.6%
[28]
  viability, T/C: 95.3%
[29]
  viability, T/C: 99.8%
[30]
  viability, T/C: 66.2%
[31]
  viability, T/C: 102%
[32]
  viability, T/C: 103%
[33]
  viability, T/C: 106%
[34]
  viability, T/C: 97.8%
[35]
  viability, T/C: 91.7%
[36]
  viability, T/C: 75.7%
[37]
  viability, T/C: 102%
[38]
  viability, T/C: 99.9%
[39]
  viability, T/C: 111%
[40]
  viability, T/C: 89.5%
[41]
  viability, T/C: 99.5%
[42]
  viability, T/C: 59.5%
